In this experiment the test system is L1210 leukemia ip in BDF1 mice, survival T/C. The experiment is described as follows: NCI In Vivo Anticancer Drug Screen. Data for tumor model L1210 Leukemia (intraperitoneal) in B6D2F1 (BDF1) mice. Conditions: endpoint: mean survival time, higher = longer survival. Put shortly:
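Mice bearing the transplanted tumor received compound or vehicle. Survival of the treated group was divided by that of the vehicle-treated control group to give the ratio.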

Setting [1] is: dose: 100.0 mg/kg/injection, schedule: Q04DX003 (ip), vehicle: saline.
Where [2] appears, read: dose: 200.0 mg/kg/injection, schedule: Q04DX003 (ip), vehicle: saline.
Setting [3] is: dose: 100.0 mg/kg/injection, schedule: Q01DX001 (ip), vehicle: saline.
The mark [4] stands for this setting: dose: 200.0 mg/kg/injection, schedule: Q01DX001 (ip), vehicle: saline.
[5] abbreviates: dose: 400.0 mg/kg/injection, schedule: Q01DX001 (ip), vehicle: saline.
Where [6] appears, read: dose: 50.0 mg/kg/injection, schedule: Q01DX009 (ip), vehicle: saline with Tween-80.
Where [7] appears, read: dose: 100.0 mg/kg/injection, schedule: Q01DX009 (ip), vehicle: saline with Tween-80.
Setting [8] is: dose: 200.0 mg/kg/injection, schedule: Q01DX009 (ip), vehicle: saline with Tween-80.
[9] abbreviates: dose: 100.0 mg/kg/injection, schedule: Q04DX003 (ip), vehicle: Klucel (hydroxypropylcellulose) (HPC).
Setting [10] is: dose: 200.0 mg/kg/injection, schedule: Q04DX003 (ip), vehicle: Klucel (hydroxypropylcellulose) (HPC).
Where [11] appears, read: dose: 400.0 mg/kg/injection, schedule: Q04DX003 (ip), vehicle: Klucel (hydroxypropylcellulose) (HPC).
Where [12] appears, read: dose: 12.5 mg/kg/injection, schedule: Q01DX009 (ip), vehicle: saline with Tween-80.
[13] abbreviates: dose: 25.0 mg/kg/injection, schedule: Q01DX009 (ip), vehicle: saline with Tween-80.
Setting [14] is: dose: 100.0 mg/kg/injection, schedule: Q04DX003 (ip), vehicle: saline with Tween-80.

The results in this text go back to PubChem BioAssay AID248 (DTP/NCI, 2004).

SMILES strings stand for the structures. Where “and” joins values, the source holds several entries; their conditions need not be identical. Equal values may be shown once. Toxic doses and inconclusive results are not listed.

`O=S(=O)(O)c1ccc(CCCCCCl)cc1`: the T/C is 107 % of control (dose: 100.0 mg/kg/injection, schedule: Q01DX009 (ip), vehicle: saline sonified); 95 % of control under setting [1]; 98 % of control (dose: 200.0 mg/kg/injection, schedule: Q01DX009 (ip), vehicle: saline sonified); 100 % of control under setting [2]; 101 % of control (dose: 400.0 mg/kg/injection, schedule: Q01DX009 (ip), vehicle: saline sonified); 96 % of control (dose: 400.0 mg/kg/injection, schedule: Q04DX003 (ip), vehicle: saline).

For `N#CCC[N+]1([O-])CCCC1C(=O)O` (stereo not given), the T/C was 103 % of control under setting [3], 101 % of control under setting [4] and 103 % of control under setting [5].

In the case of `CC(=O)Nc1cccc(S(=O)(=O)F)c1`, the T/C is 100 % of control under setting [6], 105 % of control under setting [7] and 88 % of control under setting [8].

With `Cc1cc(NCC(O)C(O)C(O)CO)c(C(=O)NN)cc1C` (stereo not given), the T/C was 101 % of control under setting [3], 96 % of control under setting [4] and 95 % of control under setting [5].

As for `CC(Br)(CBr)CCC(C)(Br)CBr` (stereo not given), the T/C is, setting by setting: under setting [9], 94 % of control; under setting [10], 96 % of control; under setting [11], 91 % of control.

With `COC(=O)c1cn2c(c1C(=O)OC)CCC2`, the T/C by setting is: (dose: 12.5 mg/kg/injection, schedule: Q01DX009 (ip), vehicle: other) 93 % of control; (dose: 25.0 mg/kg/injection, schedule: Q01DX009 (ip), vehicle: other) 96 % of control; (dose: 50.0 mg/kg/injection, schedule: Q01DX009 (ip), vehicle: other) 222 % of control; (dose: 59.0 mg/kg/injection, schedule: Q01DX009 (ip), vehicle: other) 94 % of control and 113 % of control; (dose: 89.0 mg/kg/injection, schedule: Q01DX009 (ip), vehicle: other) 99 % of control and 102 % of control; (dose: 100.0 mg/kg/injection, schedule: Q01DX009 (ip), vehicle: other) 459 % of control. Also, the T/C was 93 % of control and 106 % of control (dose: 133.0 mg/kg/injection, schedule: Q01DX009 (ip), vehicle: other); 116 % of control (dose: 300.0 mg/kg/injection, schedule: Q01DX009 (ip), vehicle: other).

In the case of `Nc1nc2c(ncn2C2CC(CO)C(O)C2O)c(=O)[nH]1` (stereo not given), the T/C is 101 % of control (dose: 9.5 mg/kg/injection, schedule: Q01DX009 (ip), vehicle: other); 94 % of control (dose: 19.0 mg/kg/injection, schedule: Q04DX003 (ip), vehicle: other); 92 % of control (dose: 38.0 mg/kg/injection, schedule: Q04DX003 (ip), vehicle: other); 88 % of control (dose: 75.0 mg/kg/injection, schedule: Q01DX001 (ip), vehicle: other).

Take `N/C(=N\O)c1cccc(/C(N)=N/O)c1`: the T/C under setting [3] was 103 % of control.

For the compound `CC(=O)C(C(C)=O)C(c1ccc2c(c1)OCO2)C(C(C)=O)C(C)=O`, the T/C was 93 % of control under setting [12]; 92 % of control under setting [13]; 93 % of control and 92 % of control under setting [6]; 86 % of control under setting [14].

For `O=C(O)/C=C/C(=O)NNC(=O)/C=C/C(=O)O`, the T/C by setting is: under setting [14], 98 % of control; (dose: 200.0 mg/kg/injection, schedule: Q04DX003 (ip), vehicle: saline with Tween-80) 98 % of control.

Consider `Cc1cc(=O)c2cccc(-c3ccccc3)c2[nH]1`, for which the T/C runs as follows: (dose: 25.0 mg/kg/injection, schedule: Q01DX009 (ip), vehicle: acetone) 95 % of control; (dose: 25.0 mg/kg/injection, schedule: Q04DX003 (ip), vehicle: saline) 101 % of control; (dose: 50.0 mg/kg/injection, schedule: Q01DX009 (ip), vehicle: acetone) 92 % of control; (dose: 50.0 mg/kg/injection, schedule: Q04DX003 (ip), vehicle: saline) 100 % of control; (dose: 100.0 mg/kg/injection, schedule: Q01DX009 (ip), vehicle: acetone) 92 % of control; under setting [1], 100 % of control. For the same compound, the T/C under setting [2] was 96 % of control.

As to `COc1ccc(OC)c(NC(=O)NNC(=O)CNC(=O)Nc2ccc(Cl)c(Cl)c2)c1`, the T/C under setting [12] was 95 % of control; the T/C under setting [13] is 95 % of control; the T/C under setting [6] was 91 % of control and 92 % of control; the T/C under setting [7] is 88 % of control; the T/C under setting [8] was 98 % of control.

For `CC(C)c1ccc(C(=S)N2CCOCC2)cc1`, the T/C by setting is: under setting [9], 97 % of control; under setting [10], 101 % of control; under setting [11], 105 % of control.

On to `COc1ccccc1NC(=O)Nc1c(C)cc(C)cc1C`, for which the T/C reads like this: under setting [9], 95 % of control; (dose: 200.0 mg/kg/injection, schedule: Q01DX009 (ip), vehicle: Klucel (hydroxypropylcellulose) (HPC)) 90 % of control; under setting [10], 88 % of control; (dose: 400.0 mg/kg/injection, schedule: Q01DX009 (ip), vehicle: Klucel (hydroxypropylcellulose) (HPC)) 95 % of control; under setting [11], 91 % of control.

In the case of `COC(=O)Cc1ccccc1OC`, the T/C was 87 % of control under setting [6], 87 % of control under setting [7] and 87 % of control under setting [8].

With `Clc1ccc(/C(=C(\Br)c2ccccc2)c2ccccc2)cc1`, the T/C is 96 % of control and 98 % of control under setting [7]; 95 % of control and 101 % of control under setting [8]; 96 % of control and 102 % of control (dose: 400.0 mg/kg/injection, schedule: Q01DX009 (ip), vehicle: saline with Tween-80).

Regarding `Cc1ccc(S(=O)(=O)N2CCN(S(=O)(=O)c3ccc(C)c([N+](=O)[O-])c3)CC2)cc1[N+](=O)[O-]`, the T/C was 103 % of control (dose: 3.12 mg/kg/injection, schedule: Q01DX009 (ip), vehicle: clinical formulation); 100 % of control (dose: 6.25 mg/kg/injection, schedule: Q01DX009 (ip), vehicle: clinical formulation); 103 % of control (dose: 6.25 mg/kg/injection, schedule: Q04DX003 (ip), vehicle: clinical formulation); 107 % of control (dose: 12.5 mg/kg/injection, schedule: Q01DX009 (ip), vehicle: clinical formulation); 108 % of control (dose: 12.5 mg/kg/injection, schedule: Q04DX003 (ip), vehicle: clinical formulation); 115 % of control (dose: 25.0 mg/kg/injection, schedule: Q01DX009 (ip), vehicle: clinical formulation). Further, the T/C runs as follows: (dose: 25.0 mg/kg/injection, schedule: Q04DX003 (ip), vehicle: clinical formulation) 116 % of control; (dose: 50.0 mg/kg/injection, schedule: Q01DX009 (ip), vehicle: clinical formulation) 95 % of control; (dose: 50.0 mg/kg/injection, schedule: Q04DX003 (ip), vehicle: clinical formulation) 124 % of control.

Regarding `C1COC(NC2CC3CCC2C3)=N1` (stereo not given), the T/C is 94 % of control (dose: 6.25 mg/kg/injection, schedule: Q01DX009 (ip), vehicle: saline with Tween-80); 94 % of control (dose: 6.25 mg/kg/injection, schedule: Q04DX003 (ip), vehicle: saline with Tween-80); 104 % of control under setting [12]; 91 % of control (dose: 12.5 mg/kg/injection, schedule: Q04DX003 (ip), vehicle: saline with Tween-80); 100 % of control under setting [13]; 97 % of control (dose: 25.0 mg/kg/injection, schedule: Q04DX003 (ip), vehicle: saline with Tween-80).

For the compound `CN1CN(c2ccccc2)C2(CCN(Cc3ccccc3)CC2)C1=O`, the T/C reads like this: under setting [3], 101 % of control; under setting [4], 101 % of control; under setting [5], 103 % of control.

As for `C=C(Cl)CNCC`, the T/C is, setting by setting: under setting [12], 91 % of control; under setting [13], 97 % of control; under setting [6], 119 % of control.

Regarding `CC(=O)Nc1cccc(OCc2cccc([N+](=O)[O-])c2)c1`, the T/C by setting is: (dose: 100.0 mg/kg/injection, schedule: Q01DX001 (ip), vehicle: carboxymethylcellulose (CMC)) 97 % of control; (dose: 200.0 mg/kg/injection, schedule: Q01DX001 (ip), vehicle: carboxymethylcellulose (CMC)) 92 % of control; (dose: 400.0 mg/kg/injection, schedule: Q01DX001 (ip), vehicle: carboxymethylcellulose (CMC)) 108 % of control.

`CCN1C(=O)CN(CCN2CC(=O)N(c3ccccc3)C2=S)C1=S`: the T/C was 94 % of control under setting [6], 102 % of control under setting [7] and 90 % of control under setting [8].
